Data set [1] addresses T1, D4 receptor (Homo sapiens, UniProt P21917).
T1 sequence (P21917 1-419): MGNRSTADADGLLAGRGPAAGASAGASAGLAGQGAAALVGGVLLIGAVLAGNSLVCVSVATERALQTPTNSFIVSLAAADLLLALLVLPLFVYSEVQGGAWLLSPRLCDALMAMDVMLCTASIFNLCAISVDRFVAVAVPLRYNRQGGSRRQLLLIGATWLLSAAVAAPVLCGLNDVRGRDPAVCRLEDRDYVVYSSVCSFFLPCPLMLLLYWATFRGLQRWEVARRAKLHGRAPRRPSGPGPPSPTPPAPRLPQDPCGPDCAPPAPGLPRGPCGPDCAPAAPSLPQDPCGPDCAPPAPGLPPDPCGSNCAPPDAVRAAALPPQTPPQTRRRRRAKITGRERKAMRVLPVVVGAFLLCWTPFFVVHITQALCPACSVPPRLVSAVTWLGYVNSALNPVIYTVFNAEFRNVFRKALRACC
Kind of data set: Binding affinity at cloned human D4 receptor, [3H]YM-09151-2 (CHO D4.4 cells). The arrangement: expressed in transfected cells; host or cells: CHO D4.4 cells. The method, then: CHO D4.4 cells (human receptors) are grown to confluence in D4 Puromycin medium containing 2 μg/ml puromycin, 5% fetal calf serum and 5 supplemented calf serum and 0.5% pen-strep. The cells are harvested as described for D2 and D3 cells and used at a concentration of 0.15 mg protein/well in the [^3H]YM-09151-2 binding assay.

Data set [2] deals with T1, D4 receptor. Kind of data set: Agonist potency by [3H]thymidine incorporation (mitogenesis), D4. It counts as cell-based. Details: expressed in transfected cells. The method, then:
(§1) Potential as domaminergenic agonists was assayed by ^3H-thymidine incorporation by standard techniques.
The mitogenesis study results presented in Table 7 assay the ability of these ligands to act as agonists or antagonists. The EC50 values thus indicate intrinsic activities or functional activities of these compounds. The value of % maximum stimulation indicates whether a compound is a partial agonist or full agonist. Generally, a value greater than 80% is considered as a full agonist and anything less than 80% is considered as a partial agonist. A compound will be considered antagonist if it produces a negative result (no [3H]thymidine incorporation) in the assay. All the compounds reported in Table 7 are either full agonists or partial agonists.
On the technique in general: Incorporation of labelled thymidine or its analogues reports DNA synthesis.

A further data set concerns the target T2, 5HT2A receptor (Homo sapiens, UniProt P28223).
T2 construct: expressed in transfected cells
Kind of data set: Binding affinity at cloned human 5HT2A receptor, [3H]Ketanserin.

A further data set addresses T3, 5HT2C receptor (Homo sapiens, UniProt P28335).
T3 construct: expressed in transfected cells
T3 sequence (P28335 33-458): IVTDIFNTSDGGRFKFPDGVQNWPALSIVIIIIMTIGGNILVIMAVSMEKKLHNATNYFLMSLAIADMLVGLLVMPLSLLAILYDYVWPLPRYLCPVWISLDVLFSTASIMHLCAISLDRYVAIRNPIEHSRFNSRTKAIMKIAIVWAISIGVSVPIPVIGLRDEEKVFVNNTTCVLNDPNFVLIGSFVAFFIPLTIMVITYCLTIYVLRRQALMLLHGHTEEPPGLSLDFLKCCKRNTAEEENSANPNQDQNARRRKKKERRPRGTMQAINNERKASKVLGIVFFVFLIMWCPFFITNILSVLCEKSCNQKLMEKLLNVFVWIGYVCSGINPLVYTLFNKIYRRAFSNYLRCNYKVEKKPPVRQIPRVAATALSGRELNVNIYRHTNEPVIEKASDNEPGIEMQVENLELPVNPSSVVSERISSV
The experiment in a line: Binding affinity at cloned human 5HT2C receptor, [3H]Mesulergine.

For another data set, the target named is T4, D1 receptor (Homo sapiens, UniProt P21728).
T4 construct: expressed in transfected cells; host or cells: LHD1 cells
Kind of data set: Binding affinity at cloned human D1 receptor, [3H]SCH23390 (LHD1 cells). The method, then:
LHD1 cells (human receptor) are grown and prepared as described for the HA7 cells as described hereafter. The final pellet is resuspended at 5 mg protein/80 ml in 50 mM Tris-HCl containing 120 mM of NaCl, 5 mM of KCl, 2 mM of CaCl2, and 1 mM of MgCl2, pH 7.4. To wells containing 100 μl of test drug or buffer and […] of [^3H]SCH 23390 (0.18 nM final conc.), is added 0.8 ml of cell homogenate (0.05 mg protein/well), and the plates are incubated at […] for 60 min. Nonspecific binding is determined with 1 μM of SCH 23390.

In another data set the target is T5, D2 receptor (Homo sapiens, UniProt P14416).
T5 construct: expressed in transfected cells
The experiment in a line: Agonist potency by [3H]thymidine incorporation (mitogenesis), D2. It is filed as cell-based. The note with it: read-out: D2 % Maxm Stim. The method, then:
as §1
The EC50 values thus indicate intrinsic activities or functional activities of these compounds. The value of % maximum stimulation indicates whether a compound is a partial agonist or full agonist. Generally, a value greater than 80% is considered as a full agonist and anything less than 80% is considered as a partial agonist.

The target of a further data set is T6, 5HT1A receptor (Homo sapiens, UniProt P08908).
T6 construct: expressed in transfected cells; host or cells: HA7 cells
T6 sequence (P08908 1-422): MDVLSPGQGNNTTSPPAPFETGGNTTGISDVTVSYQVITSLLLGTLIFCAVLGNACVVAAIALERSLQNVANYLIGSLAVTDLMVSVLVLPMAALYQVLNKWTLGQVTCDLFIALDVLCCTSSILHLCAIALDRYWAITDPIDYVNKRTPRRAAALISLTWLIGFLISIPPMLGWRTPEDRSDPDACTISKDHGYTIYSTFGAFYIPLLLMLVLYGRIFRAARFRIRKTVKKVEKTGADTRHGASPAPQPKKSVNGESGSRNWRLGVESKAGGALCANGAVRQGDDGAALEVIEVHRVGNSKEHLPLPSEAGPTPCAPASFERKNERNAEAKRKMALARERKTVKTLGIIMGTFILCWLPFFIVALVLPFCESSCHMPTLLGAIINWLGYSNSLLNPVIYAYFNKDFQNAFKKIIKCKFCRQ
The experiment in a line: Binding affinity at cloned human 5HT1A receptor, [3H]8-OH-DPAT (HA7 cells). As to the method: HA7 cells (human receptor) are grown to confluence in DMEM containing 10% fetal calf serum, 0.05% penicillin-streptomycin (pen-strep), and […] of G418. The cells are scraped from the 100 by 20 mm plates and centrifuged at 500·G for 5 min. The pellet is homogenized in 50 mM Tris-HCl, pH 7.7, with a polytron, centrifuged at 27,000·G and resuspended at 10 mg protein/ml in the same buffer. The homogenate is then stored at −70° C. in 1-ml aliquots.
The thawed cells are washed once and resuspended at 10 mg protein/80 ml in 25 mM Tris-HCl containing 100 μM of ascorbic acid and 10 mM of nialamide at pH 7.4. The assay is performed in triplicate in a 96-well plate. To 100 μl of [^3H]8-OH-DPAT (0.5 nM final conc), […] of test compound or buffer and 0.8 ml of cell homogenate (0.1 mg protein/well) is added to each well by a Tomtec Quadra 96. Nonspecific binding is defined using 1 μM dihydroergotamine. The plates are incubated at 25° C. for 60 min, then filtered. The incubation is terminated by rapid filtration through glass fiber filter paper on a Tomtec cell harvester. The filters are washed four times with ice-cold 50 mM Tris-HCl, pH 7.7, dried overnight, bagged with 10 ml scintillation cocktail before counting for 2 min. on a Wallac Betaplate 1205 liquid scintillation counter.

Another data set has as its target T7, D2L receptor (Homo sapiens, UniProt P14416).
T7 construct: expressed in transfected cells; host or cells: HEK cells
Kind of data set: Inhibition constants for binding to cloned D2L receptor expressed in HEK cells, [3H]spiperone. The method, then: (§2) Inhibition constants for binding to cloned D2L and D3 receptors expressed in HEK cells by displacing [^3H] spiperone were measured for several compounds.

A further data set has as its target D3 receptor (Homo sapiens, UniProt P35462). Kind of data set: Inhibition constants for binding to cloned D3 receptor expressed in HEK cells, [3H]spiperone. As to the method: as §2

The structures appear in SMILES notation. Where a name gives a salt, the structure may show the parent alone. Where only a bound is given, the exact number is not on record here.

For orientation: melting point means the temperature of the solid-liquid transition. A word on the Ki: it is the equilibrium dissociation constant of an inhibitor or competing ligand from its target. By EC50 is commonly meant the concentration that produces a half-maximal response. A lower EC50 goes with greater potency.

T7 sequence (P14416 whole entry): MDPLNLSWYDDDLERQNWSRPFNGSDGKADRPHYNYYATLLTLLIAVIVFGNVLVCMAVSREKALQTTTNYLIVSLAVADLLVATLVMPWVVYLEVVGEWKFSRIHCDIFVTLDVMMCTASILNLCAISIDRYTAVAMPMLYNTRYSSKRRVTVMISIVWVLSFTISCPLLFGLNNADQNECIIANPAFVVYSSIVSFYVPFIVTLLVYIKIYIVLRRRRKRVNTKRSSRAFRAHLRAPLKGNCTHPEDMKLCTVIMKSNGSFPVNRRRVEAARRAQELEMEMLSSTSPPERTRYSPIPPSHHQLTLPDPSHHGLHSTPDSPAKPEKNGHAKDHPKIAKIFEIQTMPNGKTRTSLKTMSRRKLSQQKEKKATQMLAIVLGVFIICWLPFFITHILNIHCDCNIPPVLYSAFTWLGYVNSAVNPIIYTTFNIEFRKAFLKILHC
T4 sequence (P21728 whole entry): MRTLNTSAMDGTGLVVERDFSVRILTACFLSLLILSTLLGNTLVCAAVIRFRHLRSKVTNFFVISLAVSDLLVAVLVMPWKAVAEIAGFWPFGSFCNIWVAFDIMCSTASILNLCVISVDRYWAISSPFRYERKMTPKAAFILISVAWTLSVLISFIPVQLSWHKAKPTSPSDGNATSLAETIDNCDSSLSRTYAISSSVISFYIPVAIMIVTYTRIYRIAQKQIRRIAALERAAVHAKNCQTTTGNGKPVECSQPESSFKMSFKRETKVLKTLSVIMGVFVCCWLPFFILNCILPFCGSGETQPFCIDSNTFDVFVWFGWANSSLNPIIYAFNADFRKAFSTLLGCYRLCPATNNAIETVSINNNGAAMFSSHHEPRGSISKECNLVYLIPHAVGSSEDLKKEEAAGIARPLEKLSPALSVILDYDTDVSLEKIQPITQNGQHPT
Chain of D3 receptor (P35462 whole entry): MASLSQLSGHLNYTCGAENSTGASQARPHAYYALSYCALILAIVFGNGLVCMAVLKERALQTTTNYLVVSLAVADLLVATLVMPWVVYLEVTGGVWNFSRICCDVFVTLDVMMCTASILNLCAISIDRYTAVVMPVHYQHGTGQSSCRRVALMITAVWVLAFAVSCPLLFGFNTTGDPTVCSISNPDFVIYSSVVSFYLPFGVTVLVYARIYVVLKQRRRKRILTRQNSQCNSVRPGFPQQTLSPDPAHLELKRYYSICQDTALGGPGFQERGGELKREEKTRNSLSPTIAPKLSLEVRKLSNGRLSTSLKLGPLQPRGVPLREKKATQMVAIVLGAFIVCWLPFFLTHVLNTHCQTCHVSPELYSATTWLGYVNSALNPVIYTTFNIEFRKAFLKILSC
T2 sequence (P28223 whole entry): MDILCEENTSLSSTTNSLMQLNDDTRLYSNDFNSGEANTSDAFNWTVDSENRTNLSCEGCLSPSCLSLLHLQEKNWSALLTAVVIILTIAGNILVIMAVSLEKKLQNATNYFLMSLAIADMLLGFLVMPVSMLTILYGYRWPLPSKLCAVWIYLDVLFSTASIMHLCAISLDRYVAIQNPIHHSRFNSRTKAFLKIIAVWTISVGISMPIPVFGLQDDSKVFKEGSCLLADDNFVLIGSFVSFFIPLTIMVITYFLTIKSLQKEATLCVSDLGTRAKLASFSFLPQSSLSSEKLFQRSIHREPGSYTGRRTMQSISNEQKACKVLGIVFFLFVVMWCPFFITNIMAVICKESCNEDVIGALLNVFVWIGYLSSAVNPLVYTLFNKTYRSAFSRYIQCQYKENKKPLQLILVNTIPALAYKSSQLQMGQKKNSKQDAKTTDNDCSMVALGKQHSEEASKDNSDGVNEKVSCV
T5 sequence (P14416 whole entry): as the sequence (P14416 whole entry) above

For the compound `CCCN(CCCCN1CCN(c2ccccc2)CC1)C1CCc2ccc(O)cc2C1` (stereo not drawn) (as salt: HBr) [Compound 15b, 7-Hydroxyl-2-[N-propyl-(N-(4-phenylpiperazin-1-yl)-butyl)amino]tetralin], the melting point was 152 to 156 °C.
With `C#CCN(CCCCN1CCN(c2ccccc2)CC1)C1CCc2ccc(O)cc2C1` (stereo not drawn) [Compound 12b, 7-Hydroxy-2-[N-propargyl-(N-(4-phenylpiperazin-1-yl)-butyl)amino]tetralin], the “affinity at the D4 receptor” value at D4 receptor [1] was “good affinity”. Further, the Ki at D4 receptor [1] (cloned human D4) stood at 28.9 ± 4.41 nM; on 5HT2A receptor, 260 ± 41.9 nM; at 5HT2C receptor, 3220 ± 52.9 nM; at D1 receptor, 677 ± 34 nM; on 5HT1A receptor it was 15.2 ± 3.34 nM. Besides, at D4 receptor [2] ([3H]thymidine incorporation), the EC50 was 23.9 ± 3.57 nM. Moreover, the “D4 % Maxm Stim” value on D4 receptor [2] ([3H]thymidine incorporation, >80% full agonist) stood at 85.15 ± 17.64%. In addition, on D4 receptor [2] (functional assay), the “agonist character at the D4 receptor” value is reported as “full agonists”. For the same compound, the Emax on D2 receptor stood at 85 ± 6.26%.
Regarding `CCCN(CCCCN1CCN(c2cccc(Cl)c2Cl)CC1)C1CCc2ccc(O)cc2C1` (stereo not drawn) (as salt: HCl) [Compound 19a, 7-Hydroxy-2-[N-propyl-(N-(4-(2,3-dichlorophenyl)-piperazin-1-yl)-butyl)amino]tetralin], the melting point was 155 to 159 °C.
On the same count and under the same terms, the value for `C#CCN(CCCCN1CCN(c2ccccc2)CC1)C1CCc2ccc(O)cc2C1` (stereo not drawn) (as salt: HBr) [Compound 12b, 7-Hydroxy-2-[N-propargyl-(N-(4-phenylpiperazin-1-yl)-butyl)amino]tetralin] was 182 to 186 °C.
On to `CCCN(CCN1CCN(c2ccccc2)CC1)C1CCc2nc(N)ncc2C1` (stereo not drawn) [Compound 23, 2-Amino-6-[N-propyl-(N-(4-phenylpiperazin-1-yl)-ethyl)amino]-5,6,7,8-tetrahydrobenzopyrimidine], for which the Ki at D2L receptor was 1120 ± 144 nM.
In turn, `C#CCN(CCCCN1CCN(c2cccc(Cl)c2Cl)CC1)C1CCc2ccc(O)cc2C1` (stereo not drawn) (as salt: HCl) [Compound 19b, 7-Hydroxy-2-[N-propargyl-(N-(4-(2,3-dichlorophenyl)-piperazin-1-yl)-butyl)amino]tetralin] returned a melting point of 180 to 183 °C.
Regarding `CCCN(CCC)C1CCc2ccc(O)cc2C1` (stereo not drawn) [Compound 7-OH-DPAT, reference compound], the Ki on 5HT2A receptor is more than 10000 nM; at 5HT2C receptor, more than 10000 nM; at D1 receptor, 2550 ± 1080 nM; on 5HT1A receptor it was 193 ± 3.4 nM.
`CCCN(CCN1CCN(c2ccccc2)CC1)C1CCc2sc(N)nc2C1` (stereo not drawn) [Compound 25, 2-Amino-5-[N-propyl-(N-(4-phenylpiperazin-1-yl)-ethyl)amino]-4,5,6,7-tetrahydrobenzothiazole]: the values for the Ki at D3 receptor (D3 expressed in HEK cells) and at D2L receptor were 4.14 ± 0.55 nM and 2080 ± 162 nM, respectively. In addition, on D3 receptor (ratio of Ki D2L to Ki D3, HEK cells, [3H]spiperone), the D2L/D3 turned out to be 502.
As for `CCCN(CCc1cccc(NS(=O)(=O)c2ccc(Cl)cc2)c1)CCN1CCN(c2ccccc2)CC1` (as salt: hydrochloride) [Compound 30b, 4-Chloro-N-[3-(2-{[2-(4-phenyl-piperazin-1-yl)-ethyl]-propyl-amino}-ethyl)-phenyl]-benzenesulfonamide], the melting point lay within 220 to 224 °C.
Compound `CCCN(CCc1ccc(N)cc1)CCN1CCN(c2ccccc2)CC1` (as salt: hydrochloride) [Compound 29a, 4-(2-{[2-(4-Phenyl-piperazin-1-yl)-ethyl]-propyl-amino}-ethyl)-phenylamine] had a melting point of 262 to 264 °C.
The same measure, in the same setting: the value for `CCCN(CCc1ccc(NS(=O)(=O)c2ccc(Cl)cc2)cc1)CCN1CCN(c2ccccc2)CC1` (as salt: hydrochloride) [Compound 30a, 4-Chloro-N-[4-(2-{[2-(4-phenyl-piperazin-1-yl)-ethyl]-propyl-amino}-ethyl)-phenyl]-benzenesulfonamide] was 224 to 226 °C.
Compound `CCCN(CCc1cccc(N)c1)CCN1CCN(c2ccccc2)CC1` (as salt: hydrochloride) [Compound 29b, 3-(2-{[2-(4-Phenyl-piperazin-1-yl)-ethyl]-propyl-amino}-ethyl)-phenylamine] returned a melting point of 278 to 284 °C.
The same measure, in the same setting: the value for `CCCN(CCN1CCN(c2ccccc2)CC1)C1CCc2nc(N)ncc2C1` (stereo not drawn) (as salt: HCl) [Compound 23, 2-Amino-6-[N-propyl-(N-(4-phenylpiperazin-1-yl)-ethyl)amino]-5,6,7,8-tetrahydrobenzopyrimidine] was 97 to 102 °C.

The values are drawn from patent US8227604B2, “Hybrid 2-aminotetralin and aryl-substituted piperazine compounds and their use in altering CNS activity” (Wayne State University, priority 2001, dated 2012).
